From patent US4024121A, “(Pyro)-Glu-His-Trp-D-Ser-Tyr-D-Leu-Leu-Arg-Pro-NHR and intermediates” (priority 1976, dated 1977)

Legend:
LH-RH activity [1] = settings: literature reports; cited from earlier work
LH-RH activity [2] = assay: LH-RH activity compared with the natural hormone
LH-release = LH-release in rats after subcutaneous injection (procedure of Arimura et al.); format: in vivo; settings: 50 ng subcutaneously

[D-Ala^6 ]-LH-RH
activity compared with LH-RH (LH-RH activity [1]): more active than LH-RH

CC(C)C[C@H](NC(=O)CNC(=O)[C@H](Cc1ccc(O)cc1)NC(=O)[C@@H](CO)NC(=O)[C@H](Cc1c[nH]c2ccccc12)NC(=O)[C@H](Cc1c[nH]cn1)NC(=O)[C@@H]1CCC(=O)N1)C(=O)N[C@@H](CCCNC(=N)N)C(=O)N1CCC[C@H]1C(=O)NCC(N)=O [[D-Ser^4]-LH-RH]
LH-RH activity relative to the natural hormone (LH-RH activity [2]): less than 5%

CC(C)C[C@H](NC(=O)CNC(=O)[C@H](Cc1ccc(O)cc1)NC(=O)[C@H](CO)NC(=O)[C@H](Cc1c[nH]c2ccccc12)NC(=O)[C@H](Cc1c[nH]cn1)NC(=O)[C@@H]1CCC(=O)N1)C(=O)N[C@@H](CCCNC(=N)N)C(=O)N1CCC[C@H]1C(=O)NCC(N)=O [LH-RH, (pyro)-Glu-His-Trp-Ser-Tyr-Gly-Leu-Arg-Pro-Gly-NH2]
duration of effect of the injection (LH release) (LH-release): no effects of the injection are observed after one hour | time at which peak activity (LH release) is reached after injection (LH-release): ~15 min
